Measured values taken from publication PMC5563081, “Modulating Protein-Protein Interactions of the Mitotic Polo-like Kinases to Target Mutant KRAS” (Cell Chemical Biology, 2017).
Read-outs that look alike come from different tables or passages of the source. Values belong to the molecule of their own block, whether it stands above or below them. Non-standard residues stand in square brackets, D forms with d. No end group written: not given here. *: point of attachment. TAMRA = tetramethyl-6-carboxy-rhodamine, CN(C)c1ccc2c(-c3cc(C(=O)*)ccc3C(=O)[O-])c3ccc(N(C)C)cc3[o+]c2c1; pT = C[C@@H](OP(=O)(O)O)[C@H](N)C(=O)O

Columns and labels:
[1] = test system: Panc 05.04; assay: Cell viability (SRB), Panc 05.04; type: cell-based; details: Homo sapiens, Panc 05.04; Panc 04.05; read-out: Crizotinib GI50
Experimental: (§1) SW48 Parental, SW48 G12D, Panc-1, HPAF-II, Panc 02.03 and Panc 05.04 cell lines were seeded overnight at 5000 cells per well in a 96 well plate in recommended media (ATCC). Compounds were added the following day and viability was measured at 72h using the sulforhodamine B (SRB) colorimetric assay as follows. Cells were fixed by replacing media with 1% v/v Trichloroacetic Acid (TCA) (Sigma-Aldrich) at 4°C and incubated for 1h also at 4°C. Wells were washed thoroughly with copious amounts of deionised water before staining with Sulforhodamine B (SRB) (Sigma-Aldrich) solution (0.057% w/v in 1% v/v Acetic Acid (VWR)) for 30 min. Stain was aspirated and wells washed with several changes of 1% v/v Acetic Acid until unbound stain was removed, before air-drying. Bound stain was solubilized with 100μl / well 10mM Tris (pH 8.0) (Trizma Base (121.1) Sigma-Aldrich) with agitation for 10 min. Fluorescence intensity was recorded at Ex540nm / Em590nm using a BMG Pherastar Plus plate reader ([Vichai and Kirtikara, 2006]).
(§2) Pancreatic organoids were extracted and cultured as detailed above ([Boj et al., 2015]). In brief, pancreatic organoids were seeded at 600 cells per well in a 96 well plate and allowed to grow for 7 days with media replenishment on the 3rd day. Full-grown organoids were then treated with compounds for 72h and viability determined using CellTitre Glo 3D assay (Promega). For viability assays with c-MET siRNA, cells were reverse transfected in a 6 cm dish using Dharmafect 1 (GE Dharmacon) per manufacturer’s instructions. On the following day, cells were trypsinised and plated onto 96 well plates or 6 well plates. The 96 well plates were treated with a dose range of compounds or DMSO, and viability was determined via SRB colorimetric assay. […]
(§3) Cells were reverse-transfected with 50nM (SW48 parental, SW48 KRAS G12D and Panc-1) or 25nM (HeLa Flp-In T-REx parental cells) siRNA using Dharmafect (GE Dharmacon) as manufacturer’s recommendations. […] Viability was assessed after 72 hrs, with the SRB colorimetric assay. Knockdown efficiencies were determined by Western blot or RT-qPCR. […]

[2] = test system: DLD-1; assay: Cell viability, DLD-1; type: cell-based; details: Homo sapiens, read-out: Crizotinib GI50
[3] = test system: Panc-1; assay: Cell viability (SRB), Panc-1; type: cell-based, human; details: Homo sapiens
Experimental: as §1
(§4) Pancreatic organoids were extracted and cultured as detailed above ([Boj et al., 2015]). In brief, pancreatic organoids were seeded at 600 cells per well in a 96 well plate and allowed to grow for 7 days with media replenishment on the 3rd day. Full-grown organoids were then treated with compounds for 72h and viability determined using CellTitre Glo 3D assay (Promega). For viability assays with c-MET siRNA, cells were reverse transfected in a 6 cm dish using Dharmafect 1 (GE Dharmacon) per manufacturer’s instructions. On the following day, cells were trypsinised and plated onto 96 well plates or 6 well plates. The 96 well plates were treated with a dose range of compounds or DMSO, and viability was determined via SRB colorimetric assay. Cells in the 6 well plates were collected at the end of experiment to corroborate knockdown of c-MET by Western blotting.
Cells were reverse-transfected with 50nM (SW48 parental, SW48 KRAS G12D and Panc-1) or 25nM (HeLa Flp-In T-REx parental cells) siRNA using Dharmafect (GE Dharmacon) as manufacturer’s recommendations. Where transfected cells were subsequently treated with compounds, the cells were allowed to settle overnight and then treated with compound at the indicated concentration the following day. Viability was assessed after 72 hrs, with the SRB colorimetric assay. Knockdown efficiencies were determined by Western blot or RT-qPCR. Oligos against the following target sequences were used. c-MET (Qiagen): […], […], […]. PLK1 (Qiagen): […]. PLK2 (SMARTpool; Dharmacon): ACACAGAAGGAGAACGAUA, CAUCAAUGAGGAUAGGAUA, CUGCCUAGUGUUACUGAUA, ACAAAGUCUACGCCGCAAA. PLK3 (SMARTpool; Dharmacon): GCGAGAAGAUCCUAAAUGA, GCAAGUGGGUUGACUACUC, GCACAUCCGUUGGCCAUCA, GACCUCAAGUUGGGAAAUU. PLK4 (Qiagen): […].

[4] = test system: SW48 KRAS G12D cells; assay: Cell viability (SRB), SW48 KRAS G12D; type: cell-based; details: Homo sapiens; SW48 KRAS G12D, Crizotinib with DMSO, SRB 72 hr; read-out: GI50
Experimental: as §1

[5] = test system: Panc 02.03; assay: Cell viability (SRB), Panc 02.03; type: cell-based; details: Homo sapiens, Panc 02.03; read-out: Crizotinib GI50
Experimental: as §1, §2, §3

[6] = test system: SW116; assay: Cell viability, SW1116; type: cell-based; details: Homo sapiens, read-out: Crizotinib GI50
[7] = test system: murine pancreatic organoids KRAS MUT p53 MUT; assay: Viability of pancreatic organoids (CellTitre Glo 3D), KRAS G12D; type: cell-based; details: Mus musculus; organoids KRAS MUT p53 MUT #2, Crizotinib plus DMSO, n=2; read-out: Mean GI50
Experimental: (§5) Organoid cultures were prepared from the pancreas of LSL-Trp53^R172H/+, Pdx-1-Cre (for Kras WT organoids) or LSL-Trp53^R172H/+, LSL-Kras^G12D/+, Pdx-1-Cre (for Kras^G12D organoids KPC3760 and KPC26684) strains ([Hingorani et al., 2005]). Pancreatic ducts were manually picked after tissue mincing and overnight enzymatic digestion with 0.012% (w/v) collagenase XI (Sigma) and 0.012% (w/v) dispase (GIBCO) in DMEM media containing 1% FBS (GIBCO), before seeding in growth-factor-reduced (GFR) Matrigel (BD) ([Boj et al., 2015]).
as §4

[8] = test system: SW48 parental (KRAS WT) cells; assay: Cell viability (SRB), SW48 parental; type: cell-based; details: Homo sapiens; SW48 KRAS WT, Crizotinib with DMSO, SRB 72 hr; read-out: GI50
Experimental: as §1

[9] = test system: murine pancreatic organoids KRAS WT p53 MUT; assay: Viability of pancreatic organoids (CellTitre Glo 3D), KRAS WT; type: cell-based; details: Mus musculus; organoids KRAS WT p53 MUT, Crizotinib plus DMSO, n=2; read-out: Mean GI50
Experimental: as §5, §4

[10] = test system: HT29; assay: Cell viability, HT29; type: cell-based; details: Homo sapiens, HT-29, read-out: Crizotinib GI50
[11] = biological target: T1, PLK2-PBD(356-681), Polo-box domain of human Polo-like kinase 2 (human, UniProt Q9NYY3 356-681); assay: fluorescence polarisation; competition format: TAMRA-labelled phosphopeptide 10 nM, PBD 84 nM (2.5 ng/ul), PBS pH 7.4 plus 0.03% tween; compound and PBD incubated together at 22 C for 1 hour before the peptide was added; same procedure for PLK2 PBD with its own peptide; details: both partners purified
T1 construct: Polo-like kinase 2 (PLK2), human, Polo-box domain, residues 356-681; also called PLK2 PBD (aa356-681); PLK2 PDB; source: E. coli C41, purified (GST-Sepharose column, cleaved on column with PreScission protease, gel chromatography)
T1 sequence (looked up): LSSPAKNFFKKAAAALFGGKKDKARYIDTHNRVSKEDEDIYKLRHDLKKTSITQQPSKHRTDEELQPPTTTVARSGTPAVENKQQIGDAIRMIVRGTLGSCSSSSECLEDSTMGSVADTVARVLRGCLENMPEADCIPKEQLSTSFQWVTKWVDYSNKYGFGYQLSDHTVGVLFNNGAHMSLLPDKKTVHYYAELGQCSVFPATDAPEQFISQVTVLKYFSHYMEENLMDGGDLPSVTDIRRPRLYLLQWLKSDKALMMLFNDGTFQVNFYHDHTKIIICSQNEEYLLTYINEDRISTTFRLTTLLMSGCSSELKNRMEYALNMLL

- GI50 [1]: 0.091 µM
- GI50 [2]: 1.62 µM
- GI50 ([3]; PANC-1, 72 h, Panc-1, individual compound, 72 hr, Figure 7F/7G, read-out: Abs GI50): 2.5 µM
- GI50 ([3]; PANC-1, Panc-1, read-out: Crizotinib GI50): 7.24 µM
- GI50 [4]: 0.63 ± 0.01 µM
- GI50 [5]: 0.96 µM
- GI50 [6]: 4.73 µM
- GI50 [10]: 3.85 µM
Molecule: C[C@@H](Oc1cc(-c2cnn(C3CCNCC3)c2)cnc1N)c1c(Cl)ccc(F)c1Cl [Crizotinib, reference compound]
- EC50 ([3]; Panc-1, c-MET inhibitor alone, SRB 72 h, Figure S5C, read-out: EC50, % survival): 3.5 ± 1.04 µM
- GI50 [7]: 6.8 µM
- GI50 [8]: 0.56 ± 0.02 µM
- GI50 [9]: 17.6 µM

- binding result [11]: binds
B1: TAMRA-MAGPMQTS(pThreonine)PKNGAKK, consensus binding phosphopeptide used with the PLK2 PBD (peptide)
peptide: {TAMRA}-MAGPMQTS[pT]PKNGAKK
notes: the second T of 'TST' is phosphothreonine; also called phosphopeptide substrate; source: bought: Designer Bioscience
